In patent US20140107025A1, “OCULAR DRUG DELIVERY SYSTEM” (priority 2012, published 2014):

Key:
[1] = tested on: corneal epithelial defects in the eyes of New Zealand white rabbits; assay: Rabbit corneal epithelial debridement model with healing impaired by topical dexamethasone (Example 1); assay type: in vivo; conditions: for eyes with epithelial defect completely closed/healed by day 5: topical QID OU, all eyes on dexamethasone 0.1% QID, rHGH 100 μg/mL, 50 μL drop
Source text: A rabbit debridement model was used to assess the effect of topically applied rHGH on corneal epithelial defect closure in a model where epithelial closure was impaired by concomitantly administered topical steroids (Dexamethasone 0.1% QID). Standard epithelial defects were created in the eyes of nine New Zealand white rabbits by standard methods. Rabbits received topical dexamethasone QID (4×/day) to all 18 eyes. Rabbits were randomized to one of three treatment arms post surgery: a control arm of dexamethasone only QID OU (both eyes), a vehicle group of BSS (balanced salt solution) QID OU, and test article of rHGH QID OU. One drop (50 μL) of rHGH (reconstituted in Ringers Lactate to achieve a final concentration of 100 μg/mL) (n=3) was applied topically four times to both eyes. All eyes were also treated with one drop of an antibiotic solution after the surgical defect creation. Photographic assessment (twice daily) and fluorescein assessment were used to determine the speed and quality of epithelial defect closure. The corneal defect size was estimated in the photographs by obtaining the pixel count of the defect and dividing by the pixel count of the cornea. The animals were sacrificed on day 5.
The solid black bars represent percent of eyes completely healed when treated with rHGH administered topically whereas the shaded bars represent percent of eyes completely healed when treated with BSS (balanced saline solution). Over the course of this study, no eyes were completely healed when treated with dexamethasone alone.

[2] = tested on: corneal epithelial defects in New Zealand white rabbits; assay: Corneal epithelial impaired healing debridement model, rHGH in HYSTEM/GSSG gel (Example 3); assay type: in vivo; conditions: topical dexamethasone 0.1% 4x/day for 7 days; normal healing 4-5 days; some rabbits not completely closed at 7 days
Source text: A corneal epithelial impaired healing debridement model was developed by utilizing a validated epithelial debridement procedure and treating immediately postoperative with topical steroids (dexamethasone). The corneal epithelial defects were created surgically in a standardized and reproducible manner in both eyes. The normal healing for epithelial defects in normal healthy rabbits is 4-5 days. […] This model confirmed delayed epithelial wound healing in New Zealand white rabbits.
Rabbits were randomized post surgical intervention to maintain a masked study. The examiner was masked to the treatment arm.
Recombinant Human Growth Hormone (rHGH) was reconstituted and prepared as instructed, and was delivered topically to the eye via a crosslinked hyaluronic acid gel polymer HYSTEM (with glutathione GSSG) at a concentration of 4 ug/day in a 50 ul drop BID, for 7 days (see Example 2). The comparator arms are shown in Table 1: (1) the polymer HYSTEM with GSSG but without rHGH (group 1) and (2) dexamethasone alone (no polymer and no rHGH) (group 3). In vivo clinical exams were performed twice daily to determine percent corneal healing, corneal defect size, and percent of eyes (cornea) completely healed.

Row | Molecule | eyes with epithelial defect completely closed/healed by day 5 [1] | time of healing of epithelial defects [2] | eyes starting to heal as quickly as Day 2 ([1]; Day 2, rHGH 100 μg/mL topical QID plus dexamethasone) | speed of epithelial defect closure (photographic assessment) ([1]; comparison of treatment arms over 5 days) | tolerability of dosing ([1]; topical ocular dosing QID, 5 days)
1 | C[C@@H]1C[C@H]2[C@@H]3CCC4=CC(=O)C=C[C@]4(C)[C@@]3(F)[C@@H](O)C[C@]2(C)[C@@]1(O)C(=O)CO [dexamethasone, reference compound] | 0/9 | 7 days | – | – | –
2 | rHGH: Recombinant human growth hormone; hydrophilic 22 Kda protein of 191 amino acids; Genotropin used in Example 2 | 9/9 | – | 10% | most rapid healing | tolerated the dosing well without clinical concerns
